Data reported in ChEMBL document CHEMBL1135808, “A new type of mixed anhydride and its applications to the synthesis of 7-substituted 8-chloro-5,5-dioxoimidazo[1,2-b][1,4,2]benzodithiazines with in vitro antitumor activity” (2002).

Tests used:
HOP-92 = test: In vitro total growth inhibition against non-small-cell lung cancer HOP-92 cell lines was reported.; details: Homo sapiens, read-out: Log TGI (converted)
SK-OV-3 = test: In vitro growth inhibition against ovarian cancer SK-OV-3 cell line was reported.; format: functional; details: Homo sapiens
MDA-MB-435 [1] = test: In vitro growth inhibition against breast cancer MDA-MB-435 cell line was reported.; details: Homo sapiens
CCRF-CEM [2] = test: In vitro total growth inhibition against leukemia CCRF cell lines was reported.; format: functional; details: Homo sapiens, read-out: Log TGI (converted)
HCT-116 [3] = test: In vitro growth inhibition against colon cancer HCT116 cell line was reported.; format: functional; details: Homo sapiens
HCC 2998 [4] = test: In vitro growth inhibition against colon cancer HCC2998 cell line was reported.; format: functional; details: Homo sapiens
SF-295 [5] = test: In vitro total growth inhibition against CNS cancer SF-295 cell lines was reported.; format: functional; details: Homo sapiens, read-out: Log TGI (converted)
DU-145 [6] = test: In vitro growth inhibition against prostate cancer […] cell line was reported.; format: functional; details: Homo sapiens
MOLT-4 = test: In vitro total growth inhibition against leukemia MOLT-4 cell lines was reported.; format: functional; details: Homo sapiens, read-out: Log TGI (converted)
IGROV-1 = test: In vitro total growth inhibition against ovarian cancer IGROV1 cell lines was reported.; format: functional; details: Homo sapiens, read-out: Log TGI (converted)
HT-29 = test: In vitro growth inhibition against colon cancer HT-29 cell line was reported.; format: functional; details: Homo sapiens
COLO 205 = test: Log of molar concentration leading to 50% cell death against colon cancer COLO 205 cell line was reported; format: functional; details: Homo sapiens, read-out: Log LC50 (the source's name) (converted)
OVCAR-3 = test: In vitro total growth inhibition against ovarian cancer OVCAR-3 cell lines was reported.; format: functional; details: Homo sapiens, read-out: Log TGI (converted)
DU-145 [7] = test: In vitro total growth inhibition against prostate cancer […] cell lines was reported.; format: functional; details: Homo sapiens, read-out: Log TGI (converted)
EKVX = test: Log of molar concentration leading to 50% cell death against non-small-cell lung cancer EKVX cell line was reported; format: functional; details: Homo sapiens, read-out: Log LC50 (the source's name) (converted)
RPMI-8226 = test: Log of molar concentration leading to 50% cell death against leukemia […] cell line was reported; format: functional; details: Homo sapiens, read-out: Log LC50 (the source's name) (converted)
KM12 = test: In vitro growth inhibition against colon cancer KM12 cell line was reported.; format: functional; details: Homo sapiens
UACC-62 [8] = test: In vitro total growth inhibition against melanoma UACC-62 cell lines was reported.; format: functional; details: Homo sapiens, read-out: Log TGI (converted)
Tumor Cell line = test: Log of molar concentration leading to 50% cell death was reported; format: functional; details: Homo sapiens, read-out: Log LC50 (the source's name) (converted)
BT-549 [9] = test: In vitro growth inhibition against breast cancer BT 549 cell line was reported.; format: functional; details: Homo sapiens
SF-295 [10] = test: In vitro growth inhibition against CNS cancer SF-295 cell line was reported.; format: functional; details: Homo sapiens
CAKI-1 [11] = test: In vitro growth inhibition against renal cancer CAKI-1 cell line was reported.; format: functional; details: Homo sapiens
ACHN [12] = test: In vitro total growth inhibition against renal cancer ACHN cell lines was reported.; format: functional; details: Homo sapiens, read-out: Log TGI (converted)
NCI-H46 [13] = test: Log of molar concentration leading to 50% cell death against non-small-cell lung cancer […] cell line was reported; format: functional; details: Homo sapiens, read-out: Log LC50 (the source's name) (converted)
MCF7 = test: In vitro total growth inhibition against breast cancer MCF 7 cell lines was reported.; format: functional; details: Homo sapiens, read-out: Log TGI (converted)
Hs-578T = test: In vitro growth inhibition against breast cancer HS 578T cell line was reported.; format: functional; details: Homo sapiens
SNB-75 = test: In vitro growth inhibition against CNS cancer SNB-75 cell line was reported.; format: functional; details: Homo sapiens
OVCAR-8 = test: Log of molar concentration leading to 50% cell death against ovarian cancer OVCAR-8 cell line was reported; format: functional; details: Homo sapiens, read-out: Log LC50 (the source's name) (converted)
UO-31 = test: In vitro total growth inhibition against renal cancer UO-31 cell lines was reported.; format: functional; details: Homo sapiens, read-out: Log TGI (converted)
MDA-N [14] = test: In vitro total growth inhibition against breast cancer MDA-N cell lines was reported.; format: functional; details: Homo sapiens, read-out: Log TGI (converted)
MDA-N [15] = test: In vitro growth inhibition against breast cancer MDA-N cell line was reported.; format: functional; details: Homo sapiens
SK-MEL-5 = test: Log of molar concentration leading to 50% cell death against melanoma SK-MEL-5 cell line was reported; format: functional; details: Homo sapiens, read-out: Log LC50 (the source's name) (converted)
CAKI-1 [16] = test: In vitro total growth inhibition against renal cancer CAKI-1cell lines was reported.; format: functional; details: Homo sapiens, read-out: Log TGI (converted)
SR [17] = test: In vitro total growth inhibition against leukemia SR cell lines was reported.; format: functional; details: Homo sapiens, read-out: Log TGI (converted)
HCC 2998 [18] = test: In vitro total growth inhibition against colon cancer HCC2998 cell lines was reported.; format: functional; details: Homo sapiens, read-out: Log TGI (converted)
SR [19] = test: In vitro growth inhibition against leukemia SR cell line was reported.; format: functional; details: Homo sapiens
SF-295 [20] = test: Log of molar concentration leading to 50% cell death against CNS cancer SF-295 cell line was reported; format: functional; details: Homo sapiens, read-out: Log LC50 (the source's name) (converted)
UACC-62 [21] = test: Log of molar concentration leading to 50% cell death against melanoma UACC-62 cell line was reported; format: functional; details: Homo sapiens, read-out: Log LC50 (the source's name) (converted)
HOP-62 = test: In vitro growth inhibition against non-small-cell lung cancer HOP-62 cell line was reported.; format: functional; details: Homo sapiens
SK-MEL-2 = test: Log of molar concentration leading to 50% cell death against melanoma SK-MEL-2 cell line was reported; format: functional; details: Homo sapiens, read-out: Log LC50 (the source's name) (converted)
SNB-19 = test: In vitro growth inhibition against CNS cancer SNB-19 cell line was reported.; format: functional; details: Homo sapiens
ACHN [22] = test: In vitro growth inhibition against renal cancer ACHN cell line was reported.; format: functional; details: Homo sapiens
MDA-MB-231 = test: Log of molar concentration leading to 50% cell death against breast cancer MDA-MB-231/ATCC cell line was reported; format: functional; details: Homo sapiens, read-out: Log LC50 (the source's name) (converted)
BT-549 [23] = test: In vitro total growth inhibition against breast cancer BT 549 cell line was reported.; format: functional; details: Homo sapiens, read-out: Log TGI (converted)
UACC-257 = test: In vitro total growth inhibition against melanoma UACC-257 cell line was reported.; format: functional; details: Homo sapiens
NCI-H322M = test: In vitro growth inhibition against non-small-cell lung cancer […] cell line was reported.; format: functional; details: Homo sapiens
SF-539 = test: In vitro total growth inhibition against CNS cancer SF-539 cell lines was reported.; format: functional; details: Homo sapiens, read-out: Log TGI (converted)
NCI/ADR-RES = test: In vitro growth inhibition against breast cancer NCI/ADR-RES cell line was reported.; format: functional; details: Homo sapiens
U-251 = test: Log of molar concentration leading to 50% cell death against CNS cancer U251 cell line was reported; format: functional; details: Homo sapiens, read-out: Log LC50 (the source's name) (converted)
CCRF-CEM [24] = test: In vitro growth inhibition against leukemia CCRF-CEM cell line was reported.; format: functional; details: Homo sapiens
OVCAR-5 = test: In vitro growth inhibition against ovarian cancer OVCAR-5 cell line was reported.; format: functional; details: Homo sapiens
MDA-MB-435 [25] = test: In vitro total growth inhibition against breast cancer MDA-MB-435 cell lines was reported.; details: Homo sapiens, read-out: Log TGI (converted)
LOX IMVI = test: In vitro growth inhibition against melanoma LOX IMVI cell line was reported.; format: functional; details: Homo sapiens
NCI-H522 = test: In vitro growth inhibition against non-small-cell lung cancer […] cell line was reported.; format: functional; details: Homo sapiens
PC-3 = test: In vitro growth inhibition against prostate cancer PC-3 cell line was reported.; format: functional; details: Homo sapiens
M14 = test: In vitro total growth inhibition against melanoma M14 cell lines was reported.; format: functional; details: Homo sapiens, read-out: Log TGI (converted)
HCT-116 [26] = test: In vitro total growth inhibition against colon cancer HCT116 cell lines was reported.; format: functional; details: Homo sapiens, read-out: Log TGI (converted)
NCI-H46 [27] = test: In vitro total growth inhibition against non-small-cell lung cancer […] cell lines was reported.; format: functional; details: Homo sapiens, read-out: Log TGI (converted)
OVCAR-4 = test: In vitro total growth inhibition against ovarian cancer OVCAR-4 cell lines was reported.; format: functional; details: Homo sapiens, read-out: Log TGI (converted)
SW-620 = test: In vitro total growth inhibition against colon cancer SW-620 cell lines was reported.; format: functional; details: Homo sapiens, read-out: Log TGI (converted)

O=C(Nc1nccs1)c1cc2c(cc1Cl)Sc1nccn1S2(=O)=O
TGI (HOP-92): 39.8 µM | GI50 (SK-OV-3): 24.5 µM | GI50 (MDA-MB-435 [1]): 17.4 µM | TGI (CCRF-CEM [2]): 24.5 µM | GI50 (HCT-116 [3]): 16.2 µM | GI50 (HCC 2998 [4]): 15.8 µM | TGI (SF-295 [5]): 34.7 µM | GI50 (DU-145 [6]): 16.2 µM | TGI (MOLT-4): 41.7 µM | TGI (IGROV-1): 29.5 µM | GI50 (HT-29): 20 µM | CC50 (COLO 205): 56.2 µM | TGI (OVCAR-3): 28.2 µM | TGI (DU-145 [7]): 30.2 µM | CC50 (EKVX): 97.7 µM | CC50 (RPMI-8226): 57.5 µM | GI50 (KM12): 12.3 µM | TGI (UACC-62 [8]): 27.5 µM | CC50 (Tumor Cell line): 97.7 µM | GI50 (BT-549 [9]): 18.2 µM | GI50 (SF-295 [10]): 18.2 µM | GI50 (CAKI-1 [11]): 8.51 µM | TGI (ACHN [12]): 32.4 µM | CC50 (NCI-H46 [13]): 55 µM | TGI (MCF7): 20 µM | GI50 (Hs-578T): 28.2 µM | GI50 (SNB-75): 18.6 µM | CC50 (OVCAR-8): 79.4 µM | TGI (UO-31): 14.8 µM | TGI (MDA-N [14]): 33.1 µM | GI50 (MDA-N [15]): 17.8 µM | CC50 (SK-MEL-5): 55 µM | TGI (CAKI-1 [16]): 37.2 µM | TGI (SR [17]): 12 µM | TGI (HCC 2998 [18]): 29.5 µM | GI50 (SR [19]): 3.02 µM | CC50 (SF-295 [20]): 64.6 µM | CC50 (UACC-62 [21]): 52.5 µM | GI50 (HOP-62): 14.8 µM | CC50 (SK-MEL-2): 63.1 µM | GI50 (SNB-19): 19.1 µM | GI50 (ACHN [22]): 17.8 µM | CC50 (MDA-MB-231): 67.6 µM | TGI (BT-549 [23]): 35.5 µM | GI50 (UACC-257): 13.8 µM | GI50 (NCI-H322M): 17.4 µM | TGI (SF-539): 37.2 µM | GI50 (NCI/ADR-RES): 19.1 µM | CC50 (U-251): 56.2 µM | GI50 (CCRF-CEM [24]): 5.01 µM | GI50 (OVCAR-5): 21.9 µM | TGI (MDA-MB-435 [25]): 31.6 µM | GI50 (LOX IMVI): 11 µM | GI50 (NCI-H522): 1.23 µM | GI50 (PC-3): 17 µM | TGI (M14): 34.7 µM | TGI (HCT-116 [26]): 29.5 µM | TGI (NCI-H46 [27]): 29.5 µM | TGI (OVCAR-4): 38.9 µM | TGI (SW-620): 41.7 µM
